Columns and labels:
[1] = human, serum
[2] = human
[3] = human; remark: listed apart in the source
[4] = human, serum, 4383 h
[5] = human; remark: listed apart in the source
[6] = Highest frequency of acute liver toxicity observed during clinical trials, expressed as a percentage. [column '% AIGUE' in source]; conditions: human
[7] = human; remark: listed apart in the source
[8] = Highest frequency of moderate liver toxicity observed during clinical trials, expressed as a percentage. [column '% BIOL' in source]; conditions: human
[9] = human; remark: listed apart in the source
[10] = human; remark: listed apart in the source
[11] = human, serum; remark: listed apart in the source
[12] = human; remark: listed apart in the source
[13] = human; remark: listed apart in the source
[14] = human; remark: listed apart in the source
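Throughout, for Hepatotoxicity (association with vascular disease): count of indexed literature references reporting vascular liver injury in humans, e.g. peliosis hepatitis, hepatic veno-occlusive disease or Budd-Chiari syndrome.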
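Throughout, for Hepatotoxicity (benign tumour): value is a count of indexed literature references citing a benign tumour confirmed by histopathology.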
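Throughout, for Hepatotoxicity (choleostasis): human cholestatic liver injury, shown by histopathology or by peak ALT or AST elevation over alkaline phosphatase ratio below 2, value counts indexed literature reports.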
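Throughout, for Hepatotoxicity (chronic liver disease): chronic liver injury confirmed by histopathology or persistently raised serum aminotransferase activity beyond 6 months, value given as the count of indexed literature references.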
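Throughout, for Hepatotoxicity (cirrhosis): value is a count of indexed literature references reporting cirrhosis confirmed by histopathology.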
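Throughout, for Hepatotoxicity (cytolytic): human cytolytic liver injury, shown by histopathology or by a ratio above 5 of peak ALT or AST elevation to alkaline phosphatase elevation, value counts indexed references.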
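Throughout, for Hepatotoxicity (granulomatous hepatitis): value is a count of indexed literature references reporting granulomatous liver disease confirmed by histopathology.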
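Throughout, for Hepatotoxicity (malignant tumour): malignant tumour confirmed by histopathology, value gives the count of indexed literature references reporting it.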
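Throughout, for Hepatotoxicity (severe hepatitis): human clinical data: severe hepatitis, meaning potentially life-threatening liver failure or clinically observed cases, the value counts how many indexed literature references report it.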
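Throughout, for Hepatotoxicity (steatosis): steatosis confirmed by histopathology, value is the count of indexed references.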

Row | SMILES | Hepatotoxicity (moderate) [1] | Hepatotoxicity (association with vascular disease) [2] | Hepatotoxicity (malignant tumour) [3] | Hepatotoxicity (chronic liver disease) [4] | Hepatotoxicity (cirrhosis) [5] | Hepatotoxicity (acute) [6] [%] | Hepatotoxicity (steatosis) [7] | Hepatotoxicity (moderate) [8] [%] | Hepatotoxicity (choleostasis) [9] | Hepatotoxicity (benign tumour) [10] | Hepatotoxicity (acute) [11] | Hepatotoxicity (cytolytic) [12] | Hepatotoxicity (granulomatous hepatitis) [13] | Hepatotoxicity (severe hepatitis) [14]
1 | CC(C)CN(C[C@@H](O)[C@H](Cc1ccccc1)NC(=O)O[C@H]1CCOC1)S(=O)(=O)c1ccc(N)cc1 | 0 | 0 | 0 | 0 | 0 | 10.7 | 0 | 0 | 0 | 0 | 3 | 3 | 0 | 0
2 | CCOC(=O)[C@H](CCc1ccccc1)N[C@@H](C)C(=O)N1[C@H](C(=O)O)C[C@@H]2CCC[C@@H]21 | 3 | 0 | 0 | 0 | 0 | 0 | 0 | 1.3 | 0 | 0 | 1 | 0 | 0 | 0
3 | C[C@@H](O)[C@H]1C(=O)N2C(C(=O)O)=C(S[C@@H]3CN[C@H](C(=O)Nc4cccc(C(=O)O)c4)C3)[C@H](C)[C@H]12 | 4 | 0 | 0 | 0 | 0 | 0 | 0 | 0 | 0 | 0 | 0 | 0 | 0 | 0
4 | CC(=O)OCC1=C(C(=O)O)N2C(=O)[C@@H](NC(=O)CC#N)[C@H]2SC1 | 1 | 0 | 0 | 0 | 0 | 0 | 0 | 29.6 | 0 | 0 | 0 | 0 | 0 | 0
5 | CC/C=C(\C(=O)N[C@@H]1C(=O)N2C(C(=O)OCOC(=O)C(C)(C)C)=C(COC(N)=O)CS[C@H]12)c1csc(N)n1 | 53 | 0 | 0 | 0 | 0 | 0 | 0 | 33.3 | 0 | 0 | 0 | 0 | 0 | 0
6 | Cc1c(N)nc([C@@H](CC(N)=O)NC[C@@H](N)C(N)=O)nc1C(=O)N[C@@H](C(=O)N[C@@H](C)[C@H](O)[C@@H](C)C(=O)N[C@H](C(=O)NCCc1nc(-c2nc(C(=O)NCCCN(C)CCCN(Cc3ccc(OCc4ccccc4)c(OCc4ccccc4)c3)Cc3ccc(OCc4ccccc4)c(OCc4ccccc4)c3)cs2)cs1)[C@@H](C)O)C(O[C@H]1O[C@@H](CO)[C@H](O)[C@@H](O)[C@H]1O[C@H]1O[C@@H](CO)[C@@H](O)[C@H](OC(N)=O)[C@@H]1O)c1c[nH]cn1 (some centres undefined) | 1 | 0 | 0 | 0 | 0 | 0 | 0 | 23.5 | 0 | 0 | 0 | 0 | 0 | 0
7 | CC(=O)OCOC(=O)C1=C(COC(N)=O)SC2[C@H]([C@H](C)O)C(=O)N12 (some centres undefined) | 25 | 0 | 0 | 0 | 0 | 0 | 0 | 20 | 0 | 0 | 0 | 0 | 0 | 0
8 | C[Si](C)(C)c1cccc(C(=O)C(F)(F)F)c1 | 2 | 0 | 0 | 0 | 0 | 0 | 0 | 0 | 0 | 0 | 0 | 0 | 0 | 0
9 | N=C(N)NCCCCCCC(=O)NC(O)C(=O)NCCCCNCCCN (centres undefined) | 1 | 0 | 0 | 0 | 0 | 0 | 0 | 3.6 | 0 | 0 | 0 | 0 | 0 | 0
10 | CC(/C=C1\SC(=S)N(CC(=O)O)C1=O)=C\c1ccccc1 | 2 | 0 | 0 | 0 | 0 | 0 | 0 | 1 | 0 | 0 | 1 | 1 | 0 | 1
11 | CO[C@H]1O[C@@H]2O[C@@]3(C)CC[C@H]4[C@H](C)CC[C@@H]([C@H]1C)[C@@]24OO3 | 1 | 0 | 0 | 0 | 0 | 0 | 0 | 17 | 0 | 0 | 0 | 0 | 0 | 0

Reference: ChEMBL document CHEMBL3137667, “[Drug-induced liver injury; fourteenth updated edition of the bibliographic database of liver injuries and related drugs]” (Gastroenterol Clin Biol, 2004)
